Measurements published in patent US9408387B2, “Safening 6-amino-2-(substituted phenyl)-5-substituted-4-pyrimidinecarboxylate herbicide injury on cereal crops” (Dow AgroSciences LLC, priority 2009, dated 2016).
Like-named read-outs stand apart in the source and are kept apart here.

Experiments:
Assay type in all cases: in vivo
[1] = system: spring barley (Hordeum vulgare L; HORVS); experiment: Postemergence herbicidal safening in cereal crops, greenhouse, visual injury: spring barley; details: Hordeum vulgare, post-emergence, 480 h, read-out: HORVS Ob (visual injury)
Method: (§1) Evaluation of Postemergence Herbicidal Safening in Cereal Crops
(§2) Seeds of the desired test plant species were planted in Sun Gro MetroMix® 306 planting mixture, which typically has a pH of 6.0 to 6.8 and an organic matter content of about 30 percent, in plastic pots with a surface area of 103.2 square centimeters (cm^2). When required to ensure good germination and healthy plants, a fungicide treatment and/or other chemical or physical treatment was applied. The plants were grown for 7-36 days (d) in a greenhouse with an approximate 14-hour (h) photoperiod which was maintained at about 18° C. during the day and 17° C. during the night. Nutrients and water were added on a regular basis and supplemental lighting was provided with overhead metal halide 1000-Watt lamps as necessary. The plants were employed for testing when they reached the second or third true leaf stage.
(§3) Treatments consisted of the acids or esters of compounds 1-10 and cloquintocet-mexyl (CQC-M), fenchlorazole-ethyl, mefenpyr-diethyl alone and in combination. Weighed amounts of acid or methyl esters of the compounds of formula (I) were dissolved in a volume of 97:3 v/v acetone/dimethylsulfoxide (DMSO) to obtain concentrated solutions. […] The concentrated solutions of the test compound were diluted with the addition of an aqueous mixture containing acetone, water, isopropyl alcohol, DMSO, Agri-Dex crop oil concentrate, and Triton® X-77 surfactant in a 64.7:26.0:6.7:2.0:0.7:0.01 v/v ratio. Test compounds were diluted to the appropriate application rate with a dilution solution which was prepared by mixing the appropriate volume of 97:3 v/v acetone/DMSO and the appropriate volume of an aqueous mixture containing acetone, water, isopropyl alcohol, DMSO, Agri-Dex crop oil concentrate, and Triton® X-77 surfactant in a 64.7:26.0:6.7:2.0:0.7:0.01 v/v ratio. Compound requirements are based upon a 12 mL application volume at a rate of 187 liters per hectare (L/ha). The concentrated solutions of the safener were prepared following the same procedure. Weighed amounts of safener were dissolved in a volume of 97:3 v/v acetone/DMSO to obtain concentrated safener solutions.
(§4) Spray solutions of the herbicide safener and test compound mixtures were prepared by adding the concentrated solutions to the appropriate amount of dilution solution to form 12 mL spray solution with active ingredients in combinations.
(§5) Formulated compounds were applied to the plant material with an overhead Mandel track sprayer equipped with 8002E nozzles calibrated to deliver 187 L/ha over an application area of 0.503 square meters (m^2) at a spray height of 18 inches (43 centimeters (cm)) above average plant canopy. Control plants were sprayed in the same manner with the solvent blank.
(§6) The treated plants and control plants were placed in a greenhouse as described above and watered by sub-irrigation to prevent wash-off of the test compounds. After 20-22 d, the condition of the test plants as compared with that of the control plants was determined visually and scored on a scale of 0 to 100 percent where 0 corresponds to no injury and 100 corresponds to complete kill.
(§7) Colby's equation was used to determine the herbicidal effects expected from the mixtures (Colby, S. R. Calculation of the synergistic and antagonistic response of herbicide combinations. Weeds 1967, 15, 20-22.).
(§8) The following equation was used to calculate the expected activity of mixtures containing two active ingredients, A and B: Expected=A+B−(A×B/100)
(§9) A=observed efficacy of active ingredient A at the same concentration as used in the mixture.
(§10) B=observed efficacy of active ingredient B at the same concentration as used in the mixture.

[2] = system: winter barley (Hordeum vulgare L; HORVW); experiment: Postemergence herbicidal safening in cereal crops, greenhouse, visual injury: winter barley; details: herbicide alone 8.75 g/ha; 20-22 d
Method: as §1, §2, §3, §4, §5, §6, §7, §8, §9, §10

[3] = system: winter wheat (Triticum aestivum L; TRZAW); experiment: Postemergence herbicidal safening in cereal crops, greenhouse, visual injury: winter wheat; details: herbicide alone 8.75 g/ha; 20-22 d
Method: as §1, §2, §3, §4, §5, §6, §7, §8, §9, §10

[4] = system: spring wheat (Triticum aestivum L; TRZAS); experiment: Postemergence herbicidal safening in cereal crops, greenhouse, visual injury: spring wheat; details: Triticum aestivum, post-emergence, 480 h, read-out: TRZAS Ob (visual injury)
Method: as §1, §2, §3, §4, §5, §6, §7, §8, §9, §10

[5] = system: durum wheat (Triticum durum L; TRZDU); experiment: Postemergence herbicidal safening in cereal crops, greenhouse, visual injury: durum wheat; details: herbicide alone 8.75 g/ha; 20-22 d
Method: as §1, §2, §3, §4, §5, §6, §7, §8, §9, §10

[6] = system: lamb's-quarters (Chenopodium album L; CHEAL); experiment: Postemergence herbicidal activity, greenhouse, visual injury: lamb's-quarters; details: 20-22 d
Method: as §1, §2, §3
Spray solutions of the herbicide safener and test compound mixtures were prepared by adding the concentrated solutions to the appropriate amount of dilution solution to form 12 mL spray solution with active ingredients in combinations. […]
as §6, with “kill. […]” for “kill.”

[7] = system: purple deadnettle (Lamium purpureum L; LAMPU); experiment: Postemergence herbicidal activity, greenhouse, visual injury: purple deadnettle; details: Lamium purpureum, post-emergence, 480 h, read-out: LAMPU Ob (visual injury)
Method: as §1, §2, §3, §4, §5, §6, §7, §8, §9, §10

[8] = herbicide alone 8.75 g/ha, 20-22 d
[9] = herbicide alone 35 g ae/ha, 20-22 d
[10] = safener alone 140 g ae/ha, 20-22 d

## COc1c(N)nc(-c2ccc(C(F)(F)F)cc2)nc1C(=O)O [Compound 3, 6-amino-2-(4-trifluoromethylphenyl)-5-methoxypyrimidine-4-carboxylic acid]
[1]; [8]
  pest or weed control at 8.75 g/ha: 13%
[1]; [9]
  pest or weed control at 35 g/ha: 50%
[2]
  HORVW Ob (visual injury): 8%
[3]
  TRZAW Ob (visual injury): 17%
[4]; [8]
  pest or weed control at 8.75 g/ha: 15%
[4]; [9]
  pest or weed control at 35 g/ha: 75%
[5]
  TRZDU Ob (visual injury): 7%
[6]; herbicide alone 35 g ae/ha
  CHEAL Ob (visual injury): 10%

## CCOC(=O)C1=NN(c2ccc(Cl)cc2Cl)C(C)(C(=O)OCC)C1 (stereo not shown) [Mefenpyr-diethyl, mefenpyr-diethyl, reference compound]
[1]
  pest or weed control at 140 g/ha: 0%
[7]
  pest or weed control at 140 g/ha: 0%
[4]
  pest or weed control at 140 g/ha: 0%
[6]; safener alone 140 g ae/ha
  CHEAL Ob (visual injury): 0%

## CCOC(=O)c1nc(C(Cl)(Cl)Cl)n(-c2ccc(Cl)cc2Cl)n1 [Fenchlorazole-ethyl, fenchlorazole-ethyl, reference compound]
[1]; [10]
  pest or weed control at 140 g/ha: 0%
[7]; [10]
  pest or weed control at 140 g/ha: 0%
[4]; [10]
  pest or weed control at 140 g/ha: 0%
[6]; safener alone 140 g ae/ha
  CHEAL Ob (visual injury): 0%
